Assay results published in article PMC10433847, “The Plasmodium Lactate/H^+ Transporter PfFNT Is Essential and Druggable In Vivo” (Antimicrobial Agents and Chemotherapy, 2023).

Tests used:
P. berghei = assay: 4-day Peters' test, P. berghei-infected mouse malaria model; assay type: in vivo; details: for Activity (%) / Survival / Parasite-free mice (n/total): once per day on 4 consecutive days
Description: Finally, we tested BH267.meta in vivo in a P. berghei-infected mouse malaria model. For comparison, we included the established antimalarials chloroquine, mefloquine, and artesunate in the assay. Efficacy was determined by a 4-day Peters’ test ([20], [21]) after oral administration of 30, 10, and 3 mg kg^−1 day^−1 for each antimalarial for four consecutive days. At 4 × 3 mg kg^−1 treatment with BH267.meta, parasitemia was at 0.2% after 4 days, while doses of 10 mg kg^−1 and higher decreased the parasitemia below the limit of quantitation (LOQ) of 0.1%. […] Artesunate yielded lower activity at 4 × 3 mg kg^−1. The average survival after BH267.meta treatment was similar to that after artesunate treatment and ranged from 8.0 d (3 mg kg^−1) to 13.0 d (30 mg kg^−1) due to recurring parasitemia (Table 1).
(§1) In vivo efficacy of BH267.meta against P. berghei was determined as previously described ([20], [21]). Mice were infected with a GFP-transfected P. berghei ANKA strain (donated by A. P. Waters and C. J. Janse, Leiden University, Leiden, The Netherlands), and parasitemia was determined using standard flow cytometry techniques. The detection limit was 0.1%, i.e., 1 parasite in 1,000 erythrocytes. Activity was calculated as the difference between the mean parasitemia for the control and treated groups (n = 3, each) expressed relative to the control group. BH267.meta was dissolved (3 mg kg ^−1 doses) or suspended (all higher doses) in 70/30 Tween 80/ethanol, diluted 10-fold with water, and administered orally as four consecutive daily doses (4, 24, 48, and 72 h after infection). […] different doses of BH267.meta were analyzed (30, 10, and 3 mg kg ^−1). In vivo efficacy against P. falciparum was conducted at The Art of Discovery, Derio, Spain according to the standard assay previously described ([22], [23]). Animal experiments against P. berghei were carried out at the Swiss Tropical and Public Health Institute and adhered to local and national regulations of laboratory animal welfare in Switzerland (awarded permission no. 1731). Protocols are regularly reviewed and revised following approval by the local authority (Veterinäramt Basel Stadt).

[1] = system: P. falciparum parasites with PfFNT G21E mutation; assay: EC50 determination by flow cytometry, drug-selected parasites with PfFNT G21E; assay type: cell-based, Plasmodium falciparum; details: parasites with G21E amino acid change vs 3D7 wild-type
Description: (§2) P. falciparum parasites, 3D7, were cultured in RPMI 1640 medium supplemented with 0.5% Albumax with 0+ erythrocytes (University Medical Center Hamburg-Eppendorf, Hamburg, Germany) at a 5% hematocrit at 37°C in an atmosphere containing 5% CO2, 1% O2, and 94% N2 under standard conditions ([31]). To obtain resistant parasites, 50 mL of parasite culture, starting with 5 × 10^8 to 6 × 10^8 parasites, were exposed to 3 × IC50 of either MMV007839 or BH267.meta until parasitemia was established again (around 2 weeks). For sequencing of the fnt gene, genomic DNA from the susceptible and resistant P. falciparum parasite lines was obtained from 5 mL of culture using the QIAamp DNA minikit (Qiagen, Hilden, Germany). The primer sequences used to sequence the entire fnt gene are available in Table S2. To determine the EC50, asynchronous parasites (0.5% to 1% starting parasitemia) were exposed to serial dilutions of the drug and grown for 2 days with one change of medium (including the appropriate concentration of drug), after which the parasitemia was determined using an LSR II FACS (BD Biosciences, Franklin Lakes, NJ) as previously described ([32]). The data were analyzed in GraphPad Prism to determine EC50 values.

[2] = system: P. falciparum parasite culture; parameters: method as in PMID 32816478; details: read-out: effectiveness in parasite culture; cited from earlier work
[3] = system: P. falciparum 3D7 blood stages; assay: Stage-specific action of BH267.meta on synchronized parasites; assay type: cell-based, Plasmodium falciparum; details: IC90 of BH267.meta added at ring, trophozoite or schizont stage
Description: Asynchronous cultures containing ~2% schizonts were purified using a 60% Percoll gradient and split into 4 tubes containing […] fresh blood and culture medium, shaken at 37°C for 30 min at 800 rpm to permit newly released merozoites to invade red blood cells, and then transferred into four 5-mL culture dishes. […] The cultures were maintained with daily medium changes and replenishment of IC90 BH267.meta when drug treatment had already commenced for a culture. Giemsa smear and flow cytometry were performed as described previously ([32]), and samples were taken at regular intervals (daily or every 12 h).

P. falciparum = P. falciparum SCID mouse model; assay type: in vivo; details: 50 mg kg−1 d−1 oral for four consecutive days, single animal; LOQ 0.01%
Description: In addition to the P. berghei efficacy assessment, we also evaluated BH267.meta in a P. falciparum severe combined immunodeficient (SCID) mouse model as previously described ([22], [23]). Efficacy was assessed following administration of 50 mg kg^−1 d^−1 for four consecutive days to a single animal (Fig. 7).
as §1, with “Animal experiments against P. berghei were carried out at the Swiss Tropical and Public Health Institute and adhered to local and national regulations of laboratory animal welfare in Switzerland (awarded permission no. 1731). Protocols are regularly reviewed and revised following approval by the local authority (Veterinäramt Basel Stadt).” left out

[4] = system: P. falciparum parasites with PfFNT V196L mutation; assay: EC50 determination by flow cytometry, drug-selected parasites with PfFNT V196L; assay type: cell-based, Plasmodium falciparum; details: V196L mutation vs 3D7 wild-type
Description: as §2

Structure (SMILES): C[C@H]1[C@H](OC(=O)CCC(=O)O)O[C@@H]2O[C@@]3(C)CC[C@H]4[C@H](C)CC[C@@H]1[C@@]24OO3 [Artesunate, artesunate]
- Activity (%) (P. berghei; 3 mg kg−1 day−1 oral): 85.0%
- Survival (P. berghei; 3 mg kg−1 day−1 oral): 8.8 days
- Activity (%) (P. berghei; 10 mg kg−1 day−1 oral): 99.1%
- Survival (P. berghei; 10 mg kg−1 day−1 oral): 8.1 days
- Activity (%) (P. berghei; 30 mg kg−1 day−1 oral): 99.0%
- Survival (P. berghei; 30 mg kg−1 day−1 oral): 9.2 days

Structure (SMILES): O=C(/C=C(\O)C(F)(F)C(F)(F)F)c1cccnc1 [BH267.meta]
- reduction in sensitivity compared to the 3D7 parasites [1]: no alteration in the response
- Activity (%) (P. berghei; 3 mg kg−1 day−1 oral): 99.7%
- Survival (P. berghei; 3 mg kg−1 day−1 oral): 8.0 days
- Activity (%) (P. berghei; 10 mg kg−1 day−1 oral): 99.9%
- Survival (P. berghei; 10 mg kg−1 day−1 oral): 10.7 days
- Activity (%) (P. berghei; 30 mg kg−1 day−1 oral): 99.8%
- Survival (P. berghei; 30 mg kg−1 day−1 oral): 13.0 days
- parasitemia after 4 days (P. berghei; 4 × 3 mg kg−1 oral): 0.2%
- efficacy (P. berghei; all tested doses (30, 10, 3 mg kg−1 day−1, 4 days oral)): ≥ 99.7%
- parasitemia (P. berghei; doses of 10 mg kg−1 and higher, 4 days oral, LOQ 0.1%): < 0.1%
- symptoms or side effects elicited by the compound (P. berghei; mice under treatment, 3-30 mg kg−1 day−1 oral for 4 days): free of symptoms or side effects
- activity in mice (P. berghei; mouse malaria models): > 99%
- EC50 [2]: 240 nM
- blood stage affected [3]: specifically affects the trophozoite stage
- parasitemia (P. falciparum): < 0.01%

Structure (SMILES): COc1ccc(C(=O)/C=C(\O)C(F)(F)C(F)(F)F)cc1 [BH296]
- reduction in sensitivity compared to the 3D7 parasites [1]: 3.0 fold
- fold increased IC50 [4]: 7.4 fold

Structure (SMILES): CCN(CC)CCCC(C)Nc1ccnc2cc(Cl)ccc12 (centres unmarked) [Chloroquine, chloroquine]
- Activity (%) (P. berghei; 3 mg kg−1 day−1 oral): 99.0%
- Survival (P. berghei; 3 mg kg−1 day−1 oral): 11.0 days
- Activity (%) (P. berghei; 10 mg kg−1 day−1 oral): 99.9%
- Survival (P. berghei; 10 mg kg−1 day−1 oral): 15.5 days
- Activity (%) (P. berghei; 30 mg kg−1 day−1 oral): 99.9%
- Survival (P. berghei; 30 mg kg−1 day−1 oral): 21.2 days

Structure (SMILES): COc1ccc2c(c1)OC(O)(C(F)(F)C(F)(F)F)CC2=O (centres unmarked) [MMV007839]
- reduction in sensitivity compared to the 3D7 parasites [1]: 8.4 fold

Structure (SMILES): OC(c1cc(C(F)(F)F)nc2c(C(F)(F)F)cccc12)C1CCCCN1 (centres unmarked) [Mefloquine, mefloquine]
- Activity (%) (P. berghei; 3 mg kg−1 day−1 oral): 93.0%
- Survival (P. berghei; 3 mg kg−1 day−1 oral): 13.0 days
- Activity (%) (P. berghei; 10 mg kg−1 day−1 oral): 99.9%
- Parasite-free mice (n/total) (P. berghei; 10 mg kg−1 day−1 oral): 1/5
- Survival (P. berghei; 10 mg kg−1 day−1 oral): 21.0 days
- Activity (%) (P. berghei; 30 mg kg−1 day−1 oral): 99.9%
- Parasite-free mice (n/total) (P. berghei; 30 mg kg−1 day−1 oral): 4/5
- Survival (P. berghei; 30 mg kg−1 day−1 oral): 29.1 days
